Test results as given in US12077503B2, “Substituted cyclic amides and their use as herbicides” (FMC CORPORATION, priority 2015, dated 2024).

How the values were obtained:
Format in all cases: in vivo
corn (Zea mays) [1] = assay: Test G Pre-Emergence Protocol; conditions: Zea mays, pre-emergence, 312 h, evaluated after 13 days; for plant injury at 15.625 g/ha: 15.625 g ai/ha; for plant injury at 15.625 g/ha / plant injury at 250 g/ha: read-out: Corn damage rating (100=total damage to plant; 0=no damage to plant); for plant injury at 62.5 g/ha: 62.5 g ai/ha, 100=total damage to plant, 0=no damage to plant, read-out: Corn damage rating; for plant injury at 250 g/ha: 250 g ai/ha
Summary of the method: (§1)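 One day after sowing, pots are treated with a spray of test compound formulated in acetone/water 50:50 plus 0.5% Tween 20, giving 15.625, 62.5 or 250 g/ha. Evaluation on a 0–100 damage scale follows 13 days of glasshouse growth.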

[2] = tested on: giant foxtail (Setaria faberi); assay: Test G Pre-Emergence Protocol; conditions: Setaria faberi, pre-emergence, 312 h, evaluated after 13 days; for pest or weed control at 15.625 g/ha: 15.625 g ai/ha; for pest or weed control at 15.625 g/ha / pest or weed control at 250 g/ha: read-out: Foxtail, Giant damage rating (100=total damage to plant; 0=no damage to plant); for pest or weed control at 62.5 g/ha: 62.5 g ai/ha, 100=total damage to plant, 0=no damage to plant, read-out: Foxtail, Giant damage rating; for pest or weed control at 250 g/ha: 250 g ai/ha
Summary of the method: as §1

[3] = tested on: redroot pigweed (Amaranthus retroflexus); assay: Test G Pre-Emergence Protocol; conditions: Amaranthus retroflexus, pre-emergence, 312 h, evaluated after 13 days; for pest or weed control at 15.625 g/ha: 15.625 g ai/ha; for pest or weed control at 15.625 g/ha / pest or weed control at 250 g/ha: read-out: Pigweed, Redroot damage rating (100=total damage to plant; 0=no damage to plant); for pest or weed control at 62.5 g/ha: 62.5 g ai/ha, 100=total damage to plant, 0=no damage to plant, read-out: Pigweed, Redroot damage rating; for pest or weed control at 250 g/ha: 250 g ai/ha
Summary of the method: as §1

[4] = tested on: barnyardgrass (Echinochloa crus-galli); assay: Test G Pre-Emergence Protocol; conditions: Echinochloa crus-galli, pre-emergence, 312 h, evaluated after 13 days; for pest or weed control at 15.625 g/ha: 15.625 g ai/ha; for pest or weed control at 15.625 g/ha / pest or weed control at 250 g/ha: read-out: Barnyardgrass damage rating (100=total damage to plant; 0=no damage to plant); for pest or weed control at 62.5 g/ha: 62.5 g ai/ha, 100=total damage to plant, 0=no damage to plant, read-out: Barnyardgrass damage rating; for pest or weed control at 250 g/ha: 250 g ai/ha
Summary of the method: as §1

[5] = tested on: ivy-leaved morning glory (Ipomoea hederacea); assay: Test G Pre-Emergence Protocol; conditions: Ipomoea, pre-emergence, 312 h, evaluated after 13 days; for pest or weed control at 15.625 g/ha: 15.625 g ai/ha; for pest or weed control at 15.625 g/ha / pest or weed control at 250 g/ha: read-out: Morningglory, Ivy-leaved damage rating (100=total damage to plant; 0=no damage to plant); for pest or weed control at 62.5 g/ha: 62.5 g ai/ha, 100=total damage to plant, 0=no damage to plant, read-out: Morningglory, Ivy-leaved damage rating; for pest or weed control at 250 g/ha: 250 g ai/ha
Summary of the method: as §1

[6] = tested on: velvetleaf (Abutilon theophrasti); assay: Test G Pre-Emergence Protocol; conditions: Abutilon theophrasti, pre-emergence, 312 h, evaluated after 13 days; for pest or weed control at 15.625 g/ha: 15.625 g ai/ha; for pest or weed control at 15.625 g/ha / pest or weed control at 250 g/ha: read-out: Velvetleaf damage rating (100=total damage to plant; 0=no damage to plant); for pest or weed control at 62.5 g/ha: 62.5 g ai/ha, 100=total damage to plant, 0=no damage to plant, read-out: Velvetleaf damage rating; for pest or weed control at 250 g/ha: 250 g ai/ha
Summary of the method: as §1

corn (Zea mays) [7] = assay: Test G Post-Emergence Protocol; conditions: Zea mays, post-emergence, 312 h, read-out: Corn damage rating; for plant injury at 15.625 g/ha: 15.625 g ai/ha, evaluated after 13 days (100=total damage to plant; 0=no damage to plant); for plant injury at 62.5 g/ha: 62.5 g ai/ha; for plant injury at 62.5 g/ha / plant injury at 250 g/ha: evaluated after 13 days, 100=total damage to plant, 0=no damage to plant; for plant injury at 250 g/ha: 250 g ai/ha
Summary of the method: (§2)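 Sow in soil; grow 8 d (24/16 °C, 14 h light, 65% humidity); spray 15.625/62.5/250 g/ha in acetone:water 50:50 + 0.5% Tween 20; grow on, water twice daily; score damage 0–100 at 13 d.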

[8] = tested on: giant foxtail (Setaria faberi); assay: Test G Post-Emergence Protocol; conditions: Setaria faberi, post-emergence, 312 h, read-out: Foxtail, Giant damage rating; for pest or weed control at 15.625 g/ha: 15.625 g ai/ha, evaluated after 13 days (100=total damage to plant; 0=no damage to plant); for pest or weed control at 62.5 g/ha: 62.5 g ai/ha; for pest or weed control at 62.5 g/ha / pest or weed control at 250 g/ha: evaluated after 13 days, 100=total damage to plant, 0=no damage to plant; for pest or weed control at 250 g/ha: 250 g ai/ha
Summary of the method: as §2

[9] = tested on: redroot pigweed (Amaranthus retroflexus); assay: Test G Post-Emergence Protocol; conditions: Amaranthus retroflexus, post-emergence, 312 h, read-out: Pigweed, Redroot damage rating; for pest or weed control at 15.625 g/ha: 15.625 g ai/ha, evaluated after 13 days (100=total damage to plant; 0=no damage to plant); for pest or weed control at 62.5 g/ha: 62.5 g ai/ha; for pest or weed control at 62.5 g/ha / pest or weed control at 250 g/ha: evaluated after 13 days, 100=total damage to plant, 0=no damage to plant; for pest or weed control at 250 g/ha: 250 g ai/ha
Summary of the method: as §2

[10] = tested on: barnyardgrass (Echinochloa crus-galli); assay: Test G Post-Emergence Protocol; conditions: Echinochloa crus-galli, post-emergence, 312 h, read-out: Barnyardgrass damage rating; for pest or weed control at 15.625 g/ha: 15.625 g ai/ha, evaluated after 13 days (100=total damage to plant; 0=no damage to plant); for pest or weed control at 62.5 g/ha: 62.5 g ai/ha; for pest or weed control at 62.5 g/ha / pest or weed control at 250 g/ha: evaluated after 13 days, 100=total damage to plant, 0=no damage to plant; for pest or weed control at 250 g/ha: 250 g ai/ha
Summary of the method: as §2

[11] = tested on: ivy-leaved morning glory (Ipomoea hederacea); assay: Test G Post-Emergence Protocol; conditions: Ipomoea, post-emergence, 312 h, read-out: Morningglory, Ivy-leaved damage rating; for pest or weed control at 15.625 g/ha: 15.625 g ai/ha, evaluated after 13 days (100=total damage to plant; 0=no damage to plant); for pest or weed control at 62.5 g/ha: 62.5 g ai/ha; for pest or weed control at 62.5 g/ha / pest or weed control at 250 g/ha: evaluated after 13 days, 100=total damage to plant, 0=no damage to plant; for pest or weed control at 250 g/ha: 250 g ai/ha
Summary of the method: as §2

[12] = tested on: velvetleaf (Abutilon theophrasti); assay: Test G Post-Emergence Protocol; conditions: Abutilon theophrasti, post-emergence, 312 h, read-out: Velvetleaf damage rating; for pest or weed control at 15.625 g/ha: 15.625 g ai/ha, evaluated after 13 days (100=total damage to plant; 0=no damage to plant); for pest or weed control at 62.5 g/ha: 62.5 g ai/ha; for pest or weed control at 62.5 g/ha / pest or weed control at 250 g/ha: evaluated after 13 days, 100=total damage to plant, 0=no damage to plant; for pest or weed control at 250 g/ha: 250 g ai/ha
Summary of the method: as §2

SMILES	plant injury at 15.625 g/ha (corn (Zea mays) [1]) [%]	plant injury at 62.5 g/ha (corn (Zea mays) [1]) [%]	plant injury at 250 g/ha (corn (Zea mays) [1]) [%]	pest or weed control at 15.625 g/ha [2] [%]	pest or weed control at 62.5 g/ha [2] [%]	pest or weed control at 250 g/ha [2] [%]	pest or weed control at 15.625 g/ha [3] [%]	pest or weed control at 62.5 g/ha [3] [%]	pest or weed control at 250 g/ha [3] [%]	pest or weed control at 15.625 g/ha [4] [%]	pest or weed control at 62.5 g/ha [4] [%]	pest or weed control at 250 g/ha [4] [%]	pest or weed control at 15.625 g/ha [5] [%]	pest or weed control at 62.5 g/ha [5] [%]	pest or weed control at 250 g/ha [5] [%]	pest or weed control at 15.625 g/ha [6] [%]	pest or weed control at 62.5 g/ha [6] [%]	pest or weed control at 250 g/ha [6] [%]	plant injury at 15.625 g/ha (corn (Zea mays) [7]) [%]	plant injury at 62.5 g/ha (corn (Zea mays) [7]) [%]	other results
CN1C[C@H](c2ccc(C(F)(F)F)cc2)[C@@H](C(=O)Nc2cccnc2[N+](=O)[O-])C1=O (racemic) [Compound 1824]	0	0	0	0	10	80	0	0	20	0	0	70	0	0	0	0	0	0	0	0	plant injury at 250 g/ha (corn (Zea mays) [7]): 20%; pest or weed control at 15.625 g/ha [8]: 0%; pest or weed control at 62.5 g/ha [8]: 0%; pest or weed control at 250 g/ha [8]: 10%; pest or weed control at 15.625 g/ha [9]: 0%; pest or weed control at 62.5 g/ha [9]: 0%; pest or weed control at 250 g/ha [9]: 20%; pest or weed control at 15.625 g/ha [10]: 0%; pest or weed control at 62.5 g/ha [10]: 0%; pest or weed control at 250 g/ha [10]: 10%; pest or weed control at 15.625 g/ha [11]: 0%; pest or weed control at 62.5 g/ha [11]: 0%; pest or weed control at 250 g/ha [11]: 10%; pest or weed control at 15.625 g/ha [12]: 0%; pest or weed control at 62.5 g/ha [12]: 0%; pest or weed control at 250 g/ha [12]: 70%
C=Cc1cc(Oc2ccccc2)cc([C@@H]2CN(C)C(=O)[C@H]2C(=O)Nc2cccc(F)c2F)c1 (racemic) [Compound 1826]	10	10	20	20	80	90	0	0	20	0	70	80	0	0	0	0	0	0	0	20	plant injury at 250 g/ha (corn (Zea mays) [7]): 50%; pest or weed control at 15.625 g/ha [8]: 0%; pest or weed control at 62.5 g/ha [8]: 40%; pest or weed control at 250 g/ha [8]: 80%; pest or weed control at 15.625 g/ha [9]: 0%; pest or weed control at 62.5 g/ha [9]: 0%; pest or weed control at 250 g/ha [9]: 50%; pest or weed control at 15.625 g/ha [10]: 0%; pest or weed control at 62.5 g/ha [10]: 10%; pest or weed control at 250 g/ha [10]: 70%; pest or weed control at 15.625 g/ha [11]: 0%; pest or weed control at 62.5 g/ha [11]: 20%; pest or weed control at 250 g/ha [11]: 10%; pest or weed control at 15.625 g/ha [12]: 0%; pest or weed control at 62.5 g/ha [12]: 0%; pest or weed control at 250 g/ha [12]: 10%
